{"source": "patent US5472942A", "about": "“Anti-thrombins” (priority 1988, dated 1995)", "test_system": "human blood", "experiment": "Partial thromboplastic time", "details": "equivalent doses; anti-thrombin of the invention compared with hirudin", "excerpt": "The anti-thrombin according to the invention and hirudin do however, have similar partial thromboplastic times for equivalent doses.", "data": [{"substance": "hirudin: thrombin-specific polypeptide of 65 amino acids from Hirudo medicinalis [reference compound]", "values": [{"measurement": "partial thromboplastic times", "value": "similar"}]}]}
